Assay results from patent publication US7150974B1, “Parathyroid hormone receptor binding method” (The General Hospital Corporation, priority 1991, dated 2006).

Target: T1, carboxy-terminally-truncated rat receptor, R480 (Rattus norvegicus, UniProt P25961)
T1 construct: R480, by standard PCR technology using R15B as a template and an upstream primer containing a stop codon inserted at position 481; expressed in transfected cells
T1 sequence (P25961 27-480): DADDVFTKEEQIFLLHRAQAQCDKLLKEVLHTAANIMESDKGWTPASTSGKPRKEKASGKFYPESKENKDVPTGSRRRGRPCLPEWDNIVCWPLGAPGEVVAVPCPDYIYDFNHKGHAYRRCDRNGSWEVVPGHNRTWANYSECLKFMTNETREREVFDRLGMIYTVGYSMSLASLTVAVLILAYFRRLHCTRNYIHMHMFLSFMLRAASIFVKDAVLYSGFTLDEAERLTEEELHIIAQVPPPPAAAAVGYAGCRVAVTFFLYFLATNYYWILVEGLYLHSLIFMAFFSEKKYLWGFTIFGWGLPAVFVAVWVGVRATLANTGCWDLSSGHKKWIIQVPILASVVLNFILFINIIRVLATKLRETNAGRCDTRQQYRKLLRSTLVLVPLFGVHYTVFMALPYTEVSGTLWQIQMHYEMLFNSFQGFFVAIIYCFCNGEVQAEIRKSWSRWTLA
Assay: Binding to carboxy-terminally-truncated rat receptor R480 in COS-7 and CHO cells
Details: COS-7 (transient) and CHO (stable) cells
Protocol: [Nle^8,Nle^18,Tyr^34]bPTH-(1-34)amide (NlePTH), and [Tyr^36]PTHrP(1-36)amide(PTHrP) were iodinated with Na^125I (carrier free, New England Nuclear, Boston, Mass.) as previously reported (Segre et al., J. Biol. Chem. 254: 6980, 1979), and purified by reverse-phase HPLC. In brief, the labeled peptide was dissolved in 0.1% trifluoracetic acid (TFA), applied to a C18 Sep-pak cartridge (Waters Associates, Inc., Milford, Mass.) and eluted with a solution of 60% acetonitrile in 0.1% TFA. After lyophilization, the radioligand then was applied to C18-μBondapak column (3.9 mm×30 cm. Waters Associates) and eluted over 30 min with a linear gradient of 30-50% acetonitrile-0.1% TFA at a flow rate of 2 ml/min. The radioligand eluted in two peaks; the first peak, which eluted at approximately 38% acetonitrile, was used in these studies because it gave higher total and specific bindings. […]
Incubations were terminated by aspirating the buffer, and repeatedly (×3) washing the culture dishes, containing the adherent cells with chilled 0.9% NaCl solution, over a 15 sec period. Cell-bound radioactivity was recovered by the sequential addition (×3) of 1 N NaOH (200 μl) to each well. […] A second and third extraction with 1 N NaOH (200 μl) were combined with the first, and the total radioactivity was counted in a γ-spectrometer (Packard Instruments, Downers Grove, Ill.). […]

In the case of [Nle^8,18, Tyr^34]bPTH(1-34)amide, the “affinity for truncated receptor R480 compared with wild type receptor RB” value was “equivalent affinities”.
